Patent publication US9732119B2, “Immunomodulators” (BRISTOL-MYERS SQUIBB COMPANY, priority 2014, dated 2017)
Positions of bridges follow the written chain, without caps; N, C: chain ends. Non-standard residues stand in square brackets, D forms with d. Residues, ends and D or L forms follow the SMILES beside them. Trp(1-CH2COOH) = N[C@@H](Cc1cn(CC(=O)O)c2ccccc12)C(=O)O; Phe(4-Cl) = N[C@@H](Cc1ccc(Cl)cc1)C(=O)O; Phe(4-Me) = Cc1ccc(C[C@H](N)C(=O)O)cc1; Hyp = O=C(O)[C@@H]1C[C@@H](O)CN1; Aad = N[C@@H](CCCC(=O)O)C(=O)O; NMeNle = CCCC[C@H](NC)C(=O)O; dOrn = NCCC[C@@H](N)C(=O)O; Pip = O=C(O)[C@@H]1CCCCN1; NMeA = CN[C@@H](C)C(=O)O; Orn = NCCC[C@H](N)C(=O)O; Dab = NCC[C@H](N)C(=O)O; Dap = NC[C@H](N)C(=O)O; AEA = NCCOCC(=O)O; Ava = NCCCCC(=O)O; βAla = NCCC(=O)O

What follows are compounds tested against T1, PD-1-Ig binding to PD-L1-TVMV-His (PD-L1-His) (Homo sapiens, UniProt Q9NZQ7) (assay: PD-1/PD-L1 Homogenous Time-Resolved Fluorescence (HTRF) binding assay). Conditions: PD-1-Ig (20 nM) / PD-L1-His (10 nM); numeric values.
T1 construct: hPDL1(19-239)-TVMV-His; made in house; host or cells: HEK293T cells
T1 sequence (Q9NZQ7 with tags, fused parts or gaps): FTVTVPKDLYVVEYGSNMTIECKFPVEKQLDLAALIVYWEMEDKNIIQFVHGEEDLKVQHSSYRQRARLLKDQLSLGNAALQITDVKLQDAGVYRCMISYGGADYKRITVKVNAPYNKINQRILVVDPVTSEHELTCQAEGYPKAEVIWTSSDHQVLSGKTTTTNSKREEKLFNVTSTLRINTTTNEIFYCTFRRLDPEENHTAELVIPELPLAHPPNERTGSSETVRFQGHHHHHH
How it was run: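 HTRF competition: compound pre-incubated 15 min with PD-L1-His (10 nM final), then PD-1-Ig (20 nM final) added for 15 min in dPBS, 0.1% BSA, 0.05% Tween-20. Detection with Eu-cryptate anti-Ig (1 nM) and APC anti-His (20 nM) antibodies.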

| SMILES | IC50 [nM] |
| --- | --- |
| CCCC[C@H]1C(=O)N(C)[C@@H](CCCC)C(=O)N[C@@H](CC(C)C)C(=O)N[C@H](C(=O)NCC(N)=O)CCNCC(=O)N[C@@H](Cc2ccc(O)cc2)C(=O)N(C)[C@@H](C)C(=O)N[C@@H](CC(N)=O)C(=O)N2CCC[C@H]2C(=O)N[C@@H](Cc2cnc[nH]2)C(=O)N[C@@H](CC(C)C)C(=O)N2C[C@H](O)C[C@H]2C(=O)N[C@@H](Cc2c[nH]c3ccccc23)C(=O)NCC(=O)N[C@@H](Cc2c[nH]c3ccccc23)C(=O)N1C [Example 10027] | 6.95 |
| CCCC[C@H]1C(=O)N(C)[C@@H](CCCC)C(=O)N[C@@H](CC(C)C)C(=O)NCCCCC(=O)N[C@@H](Cc2ccc(O)cc2)C(=O)N2CCCC[C@H]2C(=O)N[C@@H](CC(N)=O)C(=O)N2CCC[C@H]2C(=O)N[C@@H](CN)C(=O)N[C@@H](CCC(=O)O)C(=O)N2C[C@H](O)C[C@H]2C(=O)N[C@@H](Cc2c[nH]c3ccccc23)C(=O)N[C@@H](CCN)C(=O)N[C@@H](Cc2cn(CC(=O)O)c3ccccc23)C(=O)N1C [Example 10513] (cyclo([Ava]Y[Pip]NP[Dap]E[Hyp]W[Dab][Trp(1-CH2COOH)][NMeNle][NMeNle]L)) | 354 |

Same assay, conditions: PD-1-Ig (20 nM) / PD-L1-His (10 nM); range classes

| SMILES | IC50 [nM] |
| --- | --- |
| CCCC[C@H]1C(=O)N(C)[C@@H](CCCC)C(=O)N[C@@H](CC(C)C)C(=O)N[C@H](C(=O)NCC(N)=O)CNCC(=O)N[C@@H](Cc2ccc(O)cc2)C(=O)N2CCCC[C@H]2C(=O)N[C@@H](CC(N)=O)C(=O)N2CCC[C@H]2C(=O)N[C@@H](CN)C(=O)N[C@@H](CC(C)C)C(=O)N2C[C@H](O)C[C@H]2C(=O)N[C@@H](Cc2c[nH]c3ccccc23)C(=O)N[C@@H](CCN)C(=O)N[C@@H](Cc2cn(CC(=O)O)c3ccccc23)C(=O)N1C [Example 1037] | 1 to 9.9 |
| CCCC[C@H]1C(=O)N(C)[C@@H](CCCC)C(=O)N[C@@H](CCC(=O)O)C(=O)N[C@H](C(N)=O)CCCC(=O)N[C@@H](Cc2ccc(OC)cc2)C(=O)N2CCCC[C@H]2C(=O)N[C@@H](CC(N)=O)C(=O)N2CCC[C@H]2C(=O)N[C@@H](CN)C(=O)N[C@@H](CC(C)C)C(=O)N2C[C@H](O)C[C@H]2C(=O)N[C@@H](Cc2c[nH]c3ccccc23)C(=O)N[C@@H](CCN)C(=O)N[C@@H](Cc2cn(CC(=O)O)c3ccccc23)C(=O)N1C [Example 10563] (Y(Me)[Pip]NP[Dap]L[Hyp]W[Dab][Trp(1-CH2COOH)][NMeNle][NMeNle]E[Aad]-NH2; lactam N-14) | 1 to 9.9 |
| CCCC[C@H]1C(=O)N(C)[C@@H](CCCC)C(=O)N[C@@H](CCC(=O)O)C(=O)N[C@H](C(=O)NCC(N)=O)CNCC(=O)N[C@@H](Cc2ccc(O)cc2)C(=O)N(C)[C@@H](C)C(=O)N[C@@H](CC(N)=O)C(=O)N2CCC[C@H]2C(=O)N[C@@H](CCC(N)=O)C(=O)N[C@@H](CC(C)C)C(=O)N2C[C@H](O)C[C@H]2C(=O)N[C@@H](Cc2c[nH]c3ccccc23)C(=O)N[C@@H](CC(N)=O)C(=O)N[C@@H](Cc2cn(CC(=O)O)c3ccccc23)C(=O)N1C [Example 9018] | 1 to 9.9 |
| CCCC[C@H]1C(=O)N(C)[C@@H](CCCC)C(=O)N[C@@H](CC(C)C)C(=O)N[C@H](C(=O)NCC(N)=O)CNCC(=O)N[C@@H](Cc2ccc(O)cc2)C(=O)N(C)[C@@H](C)C(=O)N[C@@H](CC(N)=O)C(=O)N2CCC[C@H]2C(=O)N[C@@H](CN)C(=O)N[C@@H](CC(C)C)C(=O)N2C[C@H](O)C[C@H]2C(=O)N[C@@H](Cc2c[nH]c3ccccc23)C(=O)N[C@@H](CCCN)C(=O)N[C@@H](Cc2cn(CC(=O)O)c3ccccc23)C(=O)N1C [Example 1036] | 1 to 9.9 |
| CCCC[C@H]1C(=O)N(C)[C@@H](CCCC)C(=O)N[C@@H](CO)C(=O)N[C@H](C(=O)NCC(N)=O)CNCC(=O)N[C@@H](Cc2ccc(O)cc2)C(=O)N(C)[C@@H](C)C(=O)N[C@@H](CC(N)=O)C(=O)N2CCC[C@H]2C(=O)N[C@@H](Cc2cnc[nH]2)C(=O)N[C@@H](CCC(N)=O)C(=O)N2C[C@H](O)C[C@H]2C(=O)N[C@@H](Cc2c[nH]c3ccccc23)C(=O)N[C@@H](CO)C(=O)N[C@@H](Cc2c[nH]c3ccccc23)C(=O)N1C [Example 10024] | 10 to 99 |
| CCCC[C@H]1C(=O)N(C)[C@@H](CCCC)C(=O)N[C@@H](CCC(=O)O)C(=O)N[C@H](C(N)=O)CNCC(=O)N[C@@H](Cc2ccc(F)cc2)C(=O)N2CCCC[C@H]2C(=O)N[C@@H](CC(N)=O)C(=O)N2CCC[C@H]2C(=O)N[C@@H](Cc2c[nH]cn2)C(=O)N[C@@H](CCC(N)=O)C(=O)N2C[C@H](O)C[C@H]2C(=O)N[C@@H](Cc2c[nH]c3ccccc23)C(=O)N[C@@H](C)C(=O)N[C@@H](Cc2cn(CC(=O)O)c3ccccc23)C(=O)N1C [Example 9059] | 1 to 9.9 |
| CCCC[C@H]1C(=O)N(C)[C@@H](CCCC)C(=O)N[C@@H](CC(C)C)C(=O)NCCCCC(=O)N[C@@H](Cc2ccc(O)cc2)C(=O)N(C)[C@@H](C)C(=O)N[C@@H](CC(N)=O)C(=O)N2CCC[C@H]2C(=O)N[C@@H](CN)C(=O)N[C@@H](CC(C)C)C(=O)N2C[C@H](O)C[C@H]2C(=O)N[C@@H](Cc2c[nH]c3ccccc23)C(=O)N[C@@H](CCN)C(=O)N[C@@H](Cc2c[nH]c3ccccc23)C(=O)N1C [Example 10505] (cyclo([Ava]Y[NMeA]NP[Dap]L[Hyp]W[Dab]W[NMeNle][NMeNle]L)) | 1 to 9.9 |
| CCCC[C@H]1C(=O)N(C)[C@@H](CCCC)C(=O)N[C@@H](CC(C)C)C(=O)NCCOCC(=O)N[C@@H](Cc2ccc(O)cc2)C(=O)N(C)[C@@H](C)C(=O)N[C@@H](CC(N)=O)C(=O)N2CCC[C@H]2C(=O)N[C@@H](CN)C(=O)N[C@@H](CC(C)C)C(=O)N2C[C@H](O)C[C@H]2C(=O)N[C@@H](Cc2c[nH]c3ccccc23)C(=O)N[C@@H](CCN)C(=O)N[C@@H](Cc2cn(CC(=O)O)c3ccccc23)C(=O)N1C [Example 10502] (cyclo([AEA]Y[NMeA]NP[Dap]L[Hyp]W[Dab][Trp(1-CH2COOH)][NMeNle][NMeNle]L)) | 1 to 9.9 |
| CCCC[C@H]1C(=O)N(C)[C@@H](CCCC)C(=O)N[C@@H](CC(C)C)C(=O)N[C@H](C(=O)NCC(N)=O)CCCNCC(=O)N[C@@H](Cc2ccc(O)cc2)C(=O)N(C)[C@@H](C)C(=O)N[C@@H](CC(N)=O)C(=O)N2CCC[C@H]2C(=O)N[C@@H](Cc2cnc[nH]2)C(=O)N[C@@H](CCC(N)=O)C(=O)N2C[C@H](O)C[C@H]2C(=O)N[C@@H](Cc2c[nH]c3ccccc23)C(=O)NCC(=O)N[C@@H](Cc2cn(CC(=O)O)c3ccccc23)C(=O)N1C [Example 10022] | 10 to 99 |
| CCCC[C@H]1C(=O)N(C)[C@@H](CCCC)C(=O)NC(CC(C)C)C(=O)N[C@H](C(=O)NCC(N)=O)CNCC(=O)N[C@@H](Cc2ccc(O)cc2)C(=O)N(C)[C@@H](C)C(=O)N[C@@H](CC(N)=O)C(=O)N2CCC[C@H]2C(=O)N[C@@H](CN)C(=O)N[C@@H](CCC(=O)O)C(=O)N2C[C@H](O)C[C@H]2C(=O)N[C@@H](Cc2c[nH]c3ccccc23)C(=O)N[C@@H](CCN)C(=O)N[C@@H](Cc2cn(CC(=O)O)c3ccccc23)C(=O)N1C (some centres unmarked) [Example 1031] | 1 to 9.9 |
| CCCC[C@H]1C(=O)N(C)[C@@H](CCCC)C(=O)N[C@@H](C)C(=O)N[C@H](C(=O)NCC(N)=O)CNCC(=O)N[C@@H](Cc2ccc(O)cc2)C(=O)N(C)[C@@H](C)C(=O)N[C@@H](CC(=O)O)C(=O)N2CCC[C@H]2C(=O)N[C@@H](Cc2cnc[nH]2)C(=O)N[C@@H](CCC(N)=O)C(=O)N2C[C@H](O)C[C@H]2C(=O)N[C@@H](Cc2c[nH]c3ccccc23)C(=O)N[C@@H](CO)C(=O)N[C@@H](Cc2c[nH]c3ccccc23)C(=O)N1C [Example 10011] | 1 to 9.9 |
| CCCC[C@H]1C(=O)N(C)[C@@H](CCCC)C(=O)N[C@@H](CC(C)C)C(=O)N[C@H](C(N)=O)CCCC(=O)N[C@@H](Cc2ccc(O)cc2)C(=O)N2CCCC[C@H]2C(=O)N[C@@H](CC(=O)O)C(=O)N2CCC[C@H]2C(=O)N[C@@H](CN)C(=O)N[C@@H](CC(C)C)C(=O)N2C[C@H](O)C[C@H]2C(=O)N[C@@H](Cc2c[nH]c3ccccc23)C(=O)N[C@@H](CCN)C(=O)N[C@@H](Cc2cn(CC(=O)O)c3ccccc23)C(=O)N1C [Example 10552] (Y[Pip]DP[Dap]L[Hyp]W[Dab][Trp(1-CH2COOH)][NMeNle][NMeNle]L[Aad]-NH2; lactam N-14) | 1 to 9.9 |
| CCCC[C@H]1C(=O)N(C)[C@@H](CCCC)C(=O)N[C@@H](CC(C)C)C(=O)NCCC[C@H](N)C(=O)N[C@@H](Cc2ccc(Cl)cc2)C(=O)N2CCCC[C@H]2C(=O)N[C@@H](CC(N)=O)C(=O)N2CCC[C@H]2C(=O)N[C@@H](CN)C(=O)N[C@@H](CCC(=O)O)C(=O)N2C[C@H](O)C[C@H]2C(=O)N[C@@H](Cc2c[nH]c3ccccc23)C(=O)N[C@@H](CCN)C(=O)N[C@@H](Cc2cn(CC(=O)O)c3ccccc23)C(=O)N1C [Example 10546] (H-[Orn][Phe(4-Cl)][Pip]NP[Dap]E[Hyp]W[Dab][Trp(1-CH2COOH)][NMeNle][NMeNle]L; lactam 1-C) | 10 to 99 |
| CCCC[C@H]1C(=O)N(C)[C@@H](CCCC)C(=O)N[C@@H](CC(C)C)C(=O)NCC(=O)NCCC(=O)N[C@@H](Cc2ccc(O)cc2)C(=O)N(C)[C@@H](C)C(=O)N[C@@H](CC(N)=O)C(=O)N2CCC[C@H]2C(=O)N[C@@H](Cc2c[nH]cn2)C(=O)N[C@@H](CC(C)C)C(=O)N2C[C@H](O)C[C@H]2C(=O)N[C@@H](Cc2c[nH]c3ccccc23)C(=O)NCC(=O)N[C@@H](Cc2c[nH]c3ccccc23)C(=O)N1C [Example 5004] (cyclo(GW[NMeNle][NMeNle]LG[βAla]Y[NMeA]NPHL[Hyp]W)) | 100 to 10000 |
| CCCC[C@H]1C(=O)N(C)[C@@H](CCCC)C(=O)N[C@@H](CC(C)C)C(=O)NCCC[C@@H](N)C(=O)N[C@@H](Cc2ccc(C)cc2)C(=O)N2CCCC[C@H]2C(=O)N[C@@H](CC(N)=O)C(=O)N2CCC[C@H]2C(=O)N[C@@H](CN)C(=O)N[C@@H](CCC(=O)O)C(=O)N2C[C@H](O)C[C@H]2C(=O)N[C@@H](Cc2c[nH]c3ccccc23)C(=O)N[C@@H](CCN)C(=O)N[C@@H](Cc2cn(CC(=O)O)c3ccccc23)C(=O)N1C [Example 10560] (H-[dOrn][Phe(4-Me)][Pip]NP[Dap]E[Hyp]W[Dab][Trp(1-CH2COOH)][NMeNle][NMeNle]L; lactam 1-C) | 10 to 99 |
